Assays:
LXRβ = target: T1, LXRβ (Homo sapiens, UniProt P55055); assay: nuclear receptor cellular GAL4 reporter assay; type: cell-based; settings: agonist and antagonist mode; read-out: potency in agonist and antagonist mode
T1 construct: expressed in transfected cells

CAR = target: T2, CAR (Homo sapiens, UniProt Q14994); assay: nuclear receptor cellular GAL4 reporter assay; type: cell-based; settings: agonist and antagonist mode; read-out: potency in agonist and antagonist mode
T2 construct: expressed in transfected cells

AT1 (h) = target: T3, AT1 (h) (Homo sapiens, UniProt P30556); assay: Cerep panel; type: binding
T3 construct: purchased Cerep (receptors, ion channels, transporters); Eurofins Panlabs (kinases)
Experimental: (§1) A panel of 52 different receptors, ion channels and transporters was tested by Cerep, Inc. (Redmond, WA).

D1 (h) = target: T4, D1 (h) (Homo sapiens, UniProt P21728); assay: Cerep panel; type: binding
T4 construct: purchased Cerep (receptors, ion channels, transporters); Eurofins Panlabs (kinases)
Experimental: as §1

CCR1 (h) = target: T5, CCR1 (h) (Homo sapiens, UniProt P32246); assay: Cerep panel; type: binding
T5 construct: purchased Cerep (receptors, ion channels, transporters); Eurofins Panlabs (kinases)
Experimental: as §1

H2 (h) = target: T6, H2 (h) (Homo sapiens, UniProt P25021); assay: Cerep panel; type: binding
T6 construct: purchased Cerep (receptors, ion channels, transporters); Eurofins Panlabs (kinases)
Experimental: as §1

MC4 (h) = target: T7, MC4 (h) (Homo sapiens, UniProt P32245); assay: Cerep panel; type: binding
T7 construct: purchased Cerep (receptors, ion channels, transporters); Eurofins Panlabs (kinases)
Experimental: as §1

NK3 (h) = target: T8, NK3 (h) (Homo sapiens, UniProt P29371); assay: Cerep panel; type: binding
T8 construct: purchased Cerep (receptors, ion channels, transporters); Eurofins Panlabs (kinases)
Experimental: as §1

kappa (KOP) = target: T9, kappa (KOP) (Rattus norvegicus, UniProt P34975); assay: Cerep panel; type: binding
T9 construct: purchased Cerep (receptors, ion channels, transporters); Eurofins Panlabs (kinases)
Experimental: as §1

[1] = target: T10, mu (h) (MOP) (agonist site) (Homo sapiens, UniProt P35372); assay: Cerep panel; type: binding
T10 construct: purchased Cerep (receptors, ion channels, transporters); Eurofins Panlabs (kinases)
Experimental: as §1

5-HT6 (h) = target: T11, 5-HT6 (h) (Homo sapiens, UniProt P50406); assay: Cerep panel; type: binding
T11 construct: purchased Cerep (receptors, ion channels, transporters); Eurofins Panlabs (kinases)
Experimental: as §1

V1a (h) = target: T12, V1a (h) (Homo sapiens, UniProt P37288); assay: Cerep panel; type: binding
T12 construct: purchased Cerep (receptors, ion channels, transporters); Eurofins Panlabs (kinases)
Experimental: as §1

Na+ channel (site 2) = assay: Cerep panel; type: binding
Experimental: as §1

5HT2B = 5HT2B (Homo sapiens, UniProt P41595); assay: GPCR panel, cAMP or calcium FLIPR assays; type: cell-based
Experimental: (§2) 28 GPCRs were evaluated through cAMP or calcium FLIPR assays[67].

ADRA2B - AG = ADRA2B - AG (Homo sapiens, UniProt P18089); assay: GPCR panel, cAMP or calcium FLIPR assays; type: cell-based
Experimental: as §2

ADRB1 = ADRB1 (Homo sapiens, UniProt P08588); assay: GPCR panel, cAMP or calcium FLIPR assays; type: cell-based
Experimental: as §2

AT1 = AT1 (Homo sapiens, UniProt P30556); assay: GPCR panel, cAMP or calcium FLIPR assays; type: cell-based
Experimental: as §2

M2 = M2 (Homo sapiens, UniProt P08172); assay: GPCR panel, cAMP or calcium FLIPR assays; type: cell-based
Experimental: as §2

Aurora-A(h) = target: T13, Aurora-A(h) (Homo sapiens, UniProt O14965); assay: Kinase panel; type: biochemical
T13 construct: purchased Cerep (receptors, ion channels, transporters); Eurofins Panlabs (kinases)
Experimental: (§3) Kinase selectivity was conducted by Eurofins Panlabs Inc (St Charles, MO).

CaMKIIβ(h) = target: T14, CaMKIIβ(h) (Homo sapiens, UniProt Q13554); assay: Kinase panel; type: biochemical
T14 construct: purchased Cerep (receptors, ion channels, transporters); Eurofins Panlabs (kinases)
Experimental: as §3

CaMKIδ(h) = target: T15, CaMKIδ(h) (Homo sapiens, UniProt Q8IU85); assay: Kinase panel; type: biochemical
T15 construct: purchased Cerep (receptors, ion channels, transporters); Eurofins Panlabs (kinases)
Experimental: as §3

CHK2(h) = target: T16, CHK2(h) (Homo sapiens, UniProt O96017); assay: Kinase panel; type: biochemical
T16 construct: purchased Cerep (receptors, ion channels, transporters); Eurofins Panlabs (kinases)
Experimental: as §3

IR(h) = target: T17, IR(h) (Homo sapiens, UniProt P06213); assay: Kinase panel; type: biochemical
T17 construct: purchased Cerep (receptors, ion channels, transporters); Eurofins Panlabs (kinases)
Experimental: as §3

Rsk3(h) = target: T18, Rsk3(h) (Homo sapiens, UniProt Q15349); assay: Kinase panel; type: biochemical
T18 construct: purchased Cerep (receptors, ion channels, transporters); Eurofins Panlabs (kinases)
Experimental: as §3

ZAP-70(h) = target: T19, ZAP-70(h) (Homo sapiens, UniProt P43403); assay: Kinase panel; type: biochemical
T19 construct: purchased Cerep (receptors, ion channels, transporters); Eurofins Panlabs (kinases)
Experimental: as §3

ZIPK(h) = target: T20, ZIPK(h) (Homo sapiens, UniProt O43293); assay: Kinase panel; type: biochemical
T20 construct: purchased Cerep (receptors, ion channels, transporters); Eurofins Panlabs (kinases)
Experimental: as §3

[2] = test system: CD4+ T cells under Treg polarizing conditions; assay: in vitro human Treg differentiation, FOXP3 gene expression; type: cell-based; settings: 6 days
From the text: Supplement Materials and Methods
In vitro human Treg differentiation
Human nTreg Suppressive Assay

mouse whole blood = assay: in vitro whole blood assay, IL-17A production; type: cell-based; settings: mouse whole blood diluted 1:4; read-out: IC50, inhibition of IL-17A production
[3] = test system: IMQ-induced skin inflammation in mice; assay: imiquimod-induced dermal inflammation model; type: in vivo, mouse
[4] = test system: bacterial reverse mutation assay (AMES test); assay: bacterial reverse mutation assay (AMES test); type: cell-based; settings: in vitro
TK6 = assay: mammalian cell (TK6) micronucleus test; type: cell-based; settings: in vitro
plasma protein binding = type: in vitro ADME; settings: human

T13 sequence (O14965 whole entry): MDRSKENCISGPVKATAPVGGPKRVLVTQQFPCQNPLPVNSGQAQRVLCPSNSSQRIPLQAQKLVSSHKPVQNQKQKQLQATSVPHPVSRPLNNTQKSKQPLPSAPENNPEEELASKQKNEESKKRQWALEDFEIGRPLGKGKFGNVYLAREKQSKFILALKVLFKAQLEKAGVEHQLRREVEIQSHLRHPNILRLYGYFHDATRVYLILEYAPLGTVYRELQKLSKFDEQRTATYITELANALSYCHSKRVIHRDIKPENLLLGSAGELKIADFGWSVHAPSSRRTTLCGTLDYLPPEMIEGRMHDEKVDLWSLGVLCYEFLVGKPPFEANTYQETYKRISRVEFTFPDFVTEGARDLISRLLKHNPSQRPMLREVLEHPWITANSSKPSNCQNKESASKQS
Sequence of ADRB1 (P08588 whole entry): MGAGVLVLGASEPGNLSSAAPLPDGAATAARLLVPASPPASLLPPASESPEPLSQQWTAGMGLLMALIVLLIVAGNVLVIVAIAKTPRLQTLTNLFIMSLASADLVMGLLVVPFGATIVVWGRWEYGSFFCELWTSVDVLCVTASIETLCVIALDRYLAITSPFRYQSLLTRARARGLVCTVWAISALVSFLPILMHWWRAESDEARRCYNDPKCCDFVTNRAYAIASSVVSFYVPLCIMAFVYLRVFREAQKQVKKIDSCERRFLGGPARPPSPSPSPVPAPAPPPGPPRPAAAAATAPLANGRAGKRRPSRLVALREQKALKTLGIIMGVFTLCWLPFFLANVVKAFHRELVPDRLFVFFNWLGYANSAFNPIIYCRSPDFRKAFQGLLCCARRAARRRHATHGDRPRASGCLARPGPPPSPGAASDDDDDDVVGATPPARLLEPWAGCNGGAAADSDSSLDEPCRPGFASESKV
T3 sequence (P30556 whole entry): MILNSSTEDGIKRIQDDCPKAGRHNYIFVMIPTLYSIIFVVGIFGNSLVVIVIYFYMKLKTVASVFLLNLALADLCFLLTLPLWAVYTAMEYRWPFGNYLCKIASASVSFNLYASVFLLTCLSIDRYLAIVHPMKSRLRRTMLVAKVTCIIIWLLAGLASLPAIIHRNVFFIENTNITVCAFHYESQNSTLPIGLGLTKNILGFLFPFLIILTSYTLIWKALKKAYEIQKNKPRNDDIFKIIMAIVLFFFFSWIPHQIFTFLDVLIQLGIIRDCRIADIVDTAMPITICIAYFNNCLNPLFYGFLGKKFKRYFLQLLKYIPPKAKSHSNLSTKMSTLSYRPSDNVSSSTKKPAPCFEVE
Sequence of AT1 (P30556 whole entry): as above
T18 sequence (Q15349 whole entry): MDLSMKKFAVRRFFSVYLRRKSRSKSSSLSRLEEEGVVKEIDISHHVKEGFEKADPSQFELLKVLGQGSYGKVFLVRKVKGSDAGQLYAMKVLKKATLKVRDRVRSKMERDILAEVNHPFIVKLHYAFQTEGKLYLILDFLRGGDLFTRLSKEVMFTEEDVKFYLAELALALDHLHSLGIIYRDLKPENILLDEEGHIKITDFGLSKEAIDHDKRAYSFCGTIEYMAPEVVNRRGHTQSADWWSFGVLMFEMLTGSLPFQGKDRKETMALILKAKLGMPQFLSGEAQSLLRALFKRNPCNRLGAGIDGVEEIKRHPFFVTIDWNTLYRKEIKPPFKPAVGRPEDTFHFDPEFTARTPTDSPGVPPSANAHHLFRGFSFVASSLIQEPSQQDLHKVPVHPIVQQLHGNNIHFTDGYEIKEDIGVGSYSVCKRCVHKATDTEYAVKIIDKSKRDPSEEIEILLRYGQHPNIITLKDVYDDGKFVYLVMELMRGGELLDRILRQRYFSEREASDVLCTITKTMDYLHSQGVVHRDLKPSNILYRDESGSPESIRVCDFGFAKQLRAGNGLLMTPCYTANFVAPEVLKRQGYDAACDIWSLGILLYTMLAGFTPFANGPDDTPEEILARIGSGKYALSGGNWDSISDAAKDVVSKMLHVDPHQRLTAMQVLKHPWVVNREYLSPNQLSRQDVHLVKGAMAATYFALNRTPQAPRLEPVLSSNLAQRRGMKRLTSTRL
T11 sequence (P50406 whole entry): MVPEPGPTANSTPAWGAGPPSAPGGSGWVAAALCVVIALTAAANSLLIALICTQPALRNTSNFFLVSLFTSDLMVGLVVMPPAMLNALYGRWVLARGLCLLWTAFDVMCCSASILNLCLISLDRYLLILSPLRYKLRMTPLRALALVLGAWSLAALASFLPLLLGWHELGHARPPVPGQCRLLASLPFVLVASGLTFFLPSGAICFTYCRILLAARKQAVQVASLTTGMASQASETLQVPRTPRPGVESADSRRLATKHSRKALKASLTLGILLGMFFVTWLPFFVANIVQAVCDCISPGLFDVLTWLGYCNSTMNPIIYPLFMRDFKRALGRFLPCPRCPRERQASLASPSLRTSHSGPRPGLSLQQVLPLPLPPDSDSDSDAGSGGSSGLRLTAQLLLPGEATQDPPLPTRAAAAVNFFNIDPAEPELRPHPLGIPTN
T20 sequence (O43293 whole entry): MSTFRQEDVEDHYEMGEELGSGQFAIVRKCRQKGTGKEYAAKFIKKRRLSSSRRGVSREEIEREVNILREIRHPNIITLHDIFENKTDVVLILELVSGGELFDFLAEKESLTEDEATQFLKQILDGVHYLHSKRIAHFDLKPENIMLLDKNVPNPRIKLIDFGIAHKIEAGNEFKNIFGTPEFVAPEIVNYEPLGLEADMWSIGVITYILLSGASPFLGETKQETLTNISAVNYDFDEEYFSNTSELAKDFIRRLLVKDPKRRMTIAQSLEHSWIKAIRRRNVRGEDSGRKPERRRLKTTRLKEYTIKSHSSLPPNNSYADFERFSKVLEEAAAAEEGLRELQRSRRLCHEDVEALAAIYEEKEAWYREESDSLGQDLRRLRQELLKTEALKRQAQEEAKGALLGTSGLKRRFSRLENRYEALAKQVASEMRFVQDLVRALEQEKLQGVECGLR
T5 sequence (P32246 whole entry): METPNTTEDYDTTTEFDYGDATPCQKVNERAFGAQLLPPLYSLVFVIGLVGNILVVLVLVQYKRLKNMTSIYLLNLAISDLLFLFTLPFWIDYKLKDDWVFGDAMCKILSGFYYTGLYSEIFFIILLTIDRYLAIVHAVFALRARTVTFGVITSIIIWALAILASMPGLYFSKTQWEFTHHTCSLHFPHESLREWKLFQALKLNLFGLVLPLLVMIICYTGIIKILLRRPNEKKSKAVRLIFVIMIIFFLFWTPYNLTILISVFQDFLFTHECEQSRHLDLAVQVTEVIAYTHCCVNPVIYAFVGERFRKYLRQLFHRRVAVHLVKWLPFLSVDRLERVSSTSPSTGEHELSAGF
Sequence of ADRA2B - AG (P18089 whole entry): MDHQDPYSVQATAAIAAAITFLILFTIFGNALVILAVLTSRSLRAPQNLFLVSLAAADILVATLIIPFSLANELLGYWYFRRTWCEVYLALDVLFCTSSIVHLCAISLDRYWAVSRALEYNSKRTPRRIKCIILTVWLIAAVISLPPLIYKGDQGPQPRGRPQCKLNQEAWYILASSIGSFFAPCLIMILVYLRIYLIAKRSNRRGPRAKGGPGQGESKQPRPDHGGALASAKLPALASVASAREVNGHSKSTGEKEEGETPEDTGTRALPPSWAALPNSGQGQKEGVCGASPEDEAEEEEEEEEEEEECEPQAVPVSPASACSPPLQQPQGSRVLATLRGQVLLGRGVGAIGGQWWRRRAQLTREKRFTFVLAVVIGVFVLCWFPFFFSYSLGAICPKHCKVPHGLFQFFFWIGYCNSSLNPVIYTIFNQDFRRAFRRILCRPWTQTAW
T9 sequence (P34975 whole entry): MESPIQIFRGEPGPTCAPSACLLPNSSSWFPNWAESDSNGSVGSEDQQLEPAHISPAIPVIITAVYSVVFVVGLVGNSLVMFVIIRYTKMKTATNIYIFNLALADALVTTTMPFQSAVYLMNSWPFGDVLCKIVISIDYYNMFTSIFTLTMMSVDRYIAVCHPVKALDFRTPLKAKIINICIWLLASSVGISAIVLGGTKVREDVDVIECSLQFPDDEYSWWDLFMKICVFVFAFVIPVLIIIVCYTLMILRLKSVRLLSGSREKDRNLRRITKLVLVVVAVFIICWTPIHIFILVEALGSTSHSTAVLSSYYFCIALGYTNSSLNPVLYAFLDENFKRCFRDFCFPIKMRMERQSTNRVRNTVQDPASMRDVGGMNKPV
T7 sequence (P32245 whole entry): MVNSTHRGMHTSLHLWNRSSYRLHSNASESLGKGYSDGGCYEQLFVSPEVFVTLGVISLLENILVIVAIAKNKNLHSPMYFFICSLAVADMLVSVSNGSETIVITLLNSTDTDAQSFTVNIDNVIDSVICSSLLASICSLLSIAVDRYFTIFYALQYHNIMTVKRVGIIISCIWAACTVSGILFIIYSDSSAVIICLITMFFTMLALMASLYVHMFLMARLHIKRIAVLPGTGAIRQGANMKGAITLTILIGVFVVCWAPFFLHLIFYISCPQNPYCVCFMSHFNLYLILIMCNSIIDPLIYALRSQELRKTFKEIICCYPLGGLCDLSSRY
T6 sequence (P25021 whole entry): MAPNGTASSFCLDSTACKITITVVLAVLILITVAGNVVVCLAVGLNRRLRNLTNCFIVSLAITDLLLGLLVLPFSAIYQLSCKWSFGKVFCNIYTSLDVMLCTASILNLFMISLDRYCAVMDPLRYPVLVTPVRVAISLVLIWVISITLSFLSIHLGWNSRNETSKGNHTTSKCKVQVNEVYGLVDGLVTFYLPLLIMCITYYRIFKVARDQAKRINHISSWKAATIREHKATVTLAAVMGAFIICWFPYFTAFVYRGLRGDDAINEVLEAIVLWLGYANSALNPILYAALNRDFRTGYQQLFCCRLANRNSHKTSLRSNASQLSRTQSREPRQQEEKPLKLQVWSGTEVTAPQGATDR

CC1CCCN1C(=O)c1nc(C(=O)NCC(C)(C)O)sc1-c1ccc(C(O)(C(F)(F)F)C(F)(F)F)c(Cl)c1Cl (stereo not drawn) [JNJ-61803534]
IC50 (LXRβ): > 1.5 µM | IC50 (CAR): > 1.5 µM | inhibition at 1 µM (AT1 (h)): < 10% | inhibition at 10 µM (AT1 (h)): < 10% | inhibition at 1 µM (D1 (h)): < 10% | inhibition at 10 µM (D1 (h)): < 10% | inhibition at 1 µM (CCR1 (h)): < 10% | inhibition at 10 µM (CCR1 (h)): < 10% | inhibition at 1 µM (H2 (h)): < 10% | inhibition at 10 µM (H2 (h)): 16.6% | inhibition at 1 µM (MC4 (h)): < 10% | inhibition at 10 µM (MC4 (h)): < 10% | inhibition at 1 µM (NK3 (h)): < 10% | inhibition at 10 µM (NK3 (h)): < 10% | inhibition at 1 µM (kappa (KOP)): < 10% | inhibition at 10 µM (kappa (KOP)): < 10% | inhibition at 1 µM [1]: < 10% | inhibition at 10 µM [1]: 12.2% | inhibition at 1 µM (5-HT6 (h)): < 10% | inhibition at 10 µM (5-HT6 (h)): < 10% | inhibition at 1 µM (V1a (h)): < 10% | inhibition at 10 µM (V1a (h)): 20.3% | % Inhibition at 1 µM (Na+ channel (site 2); 1 µM): 15% | % Inhibition at 10 µM (Na+ channel (site 2); 10 µM): 46% | EC50 (5HT2B; agonist): > 10 µM | IC50 (5HT2B; antagonist): > 10 µM | EC50 (ADRA2B - AG; agonist): > 12.5 µM | IC50 (ADRA2B - AG; antagonist): > 12.5 µM | EC50 (ADRB1; agonist): > 12.5 µM | IC50 (ADRB1; antagonist): > 12.5 µM | EC50 (AT1; agonist): > 5 µM | IC50 (AT1; antagonist): > 5 µM | EC50 (M2; agonist): > 12.5 µM | IC50 (M2; antagonist): > 12.5 µM | activity at 1 µM (Aurora-A(h)): 97% | activity at 10 µM (Aurora-A(h)): 102% | activity at 1 µM (CaMKIIβ(h)): 89% | activity at 10 µM (CaMKIIβ(h)): 92% | activity at 1 µM (CaMKIδ(h)): 81% | activity at 10 µM (CaMKIδ(h)): 100% | activity at 1 µM (CHK2(h)): 107% | activity at 10 µM (CHK2(h)): 111% | activity at 1 µM (IR(h)): 92% | activity at 10 µM (IR(h)): 89% | activity at 1 µM (Rsk3(h)): 107% | activity at 10 µM (Rsk3(h)): 104% | activity at 1 µM (ZAP-70(h)): 137% | activity at 10 µM (ZAP-70(h)): 119% | activity at 1 µM (ZIPK(h)): 113% | activity at 10 µM (ZIPK(h)): 120% | FOXP3 expression levels versus DMSO-treated cells [2]: similar | IC50 (mouse whole blood): 0.172 ± 0.05 µM | IL-17A and IL-17F expression ([3]; 30 mg/kg, ears, RNA level): trend towards inhibition | IMQ-induced neutrophils and inflammatory monocytes infiltrations in the ear ([3]; 100 mg/kg): significantly reduced | IMQ-induced expression of IL-17A, IL-17F, and IL-22 genes ([3]; 100 mg/kg, ears, RNA level): significantly inhibited | disease scores (thickness, redness, scaling) of back skin ([3]; 30 and 100 mg/kg oral, dose-dependent): significantly reduced | IL-10 expression ([3]; 30 and 100 mg/kg, RNA level): not inhibited | IL-23R expression ([3]; 30 and 100 mg/kg, RNA level): trend towards inhibition | IFNγ expression ([3]; RNA level): minimally impacted | IL-17A- and IL-17A/IL-22-producing γδ T cell populations ([3]; ear skin and draining lymph nodes, dose-dependent): reduced | genetic toxicity [4]: negative | genetic toxicity (TK6): negative | fraction unbound (plasma protein binding): 0.011
